Assay results: patent US12458688B2, “Epitopes” (Scancell Limited, priority 2018, dated 2025)
Where no end group is shown, it is not given here. [ ]: non-standard residue; d: D form. hCit = NC(=O)NCCCC[C@H](N)C(=O)O

Legend:
[1] = test system: PBMCs from healthy donors; test: CFSE proliferation assay, CD25-depleted PBMCs of healthy donors; type: cell-based, human; conditions: 10 μg/ml peptide, day 10, vs media control
Protocol: (§1) Peripheral blood samples were drawn into lithium heparin tubes (Becton Dickinson) and processed immediately following venepuncture. PBMCs were isolated by density gradient centrifugation using Ficoll-Hypaque. Proliferation and cultured ELISpot assay of PBMCs were performed immediately after isolation. For CD25 depletion PBMCs were processed as above and […] using anti-CD25 microbeads and MACS Cell Separation Columns (Miltenyi).
(§2) Briefly, a 50 μM stock solution in warm PBS was prepared from a master solution of 5 mM in dimethyl sulfoxide (DMSO). CFSE was rapidly added to PBMCs (5×10^6 cells/ml loading buffer (PBS with 5% v/v heat inactivated FCS)) to achieve a final concentration of 5 μM. PBMCs were incubated at room temperature in the dark for 5 mins after which non-cellular incorporated CFSE was removed by washing twice with excess (×10 v/v volumes) of loading buffer (300g ×10 mins). Cells were made up in complete media to 1.5×10^6/mL and plated and stimulated with vehicle (negative control), PHA (positive control, final concentration 10 μg/ml) or peptide (10 μg/ml) as described above.
(§3) On day 10, 500 μl of cells were removed from culture, washed in PBS and stained with 1:50 dilution of anti-CD4 (PE-Cy5, clone RPA-T4, ThermoFisher), anti-CD8 efluor 450, clone RPA-T8, ThermoFisher) and anti-CD134 (PE-Cy7, Clone REA621, Miltenyi). […] Stained samples were analysed immediately on a MACSQuant 10 flow cytometer equipped with MACSQuant software version 2.8.168.16380.
Determination as to the existence of a repertoire of T cells for carbamylated epitopes in humans was investigated using PBMCs from normal, healthy donors. […] Cells were labelled with CFSE and proliferation was monitored after stimulation with homocitrulline peptides. […]
Determination as to the existence of a repertoire of T cells for carbamylated Cyk8 epitopes in humans was investigated using PBMCs from seven normal, healthy donors. […] Cells were labelled with CFSE and proliferation was monitored after stimulation with Cyk8 Hcit peptides.

[2] = test system: PBMCs from cancer patients; test: CFSE proliferation assay, CD25-depleted PBMCs of cancer patients; type: cell-based, human; conditions: 10 μg/ml peptide, day 10, vs media control
Protocol: as §1
as §2, with “Cells were made up in complete media to 1.5×10^6/mL and plated and stimulated with vehicle (negative control), PHA (positive control, final concentration 10 μg/ml) or peptide (10 μg/ml) as described above.” left out
as §3, with “2.8.168.16380. […]” for “2.8.168.16380.”

[3] = test system: B16 HHDII/DP4 tumour cells; test: Tumour therapy, B16 HHDII/DP4 tumour in HHDII/DP4 mice; type: in vivo, mouse; conditions: peptide with CpG/MPLA days 4, 11, 18
Excerpt: (§4) To determine if the epitopes that stimulate T cell responses are presented on MHC-II within the tumour environment, our homocitrullinated peptides were checked for tumour therapy in B16 tumour models. Mice were implanted with tumour cells on day 1 and then immunised with peptides and CpG/MPLA on days 4, 11 and 18.
HHDII/DP4 mice were challenged with B16 HHDII/DP4 tumour cells and then immunised with ALDOA homocitrulline peptides (FIG. 19c).
Next, we aimed to determine if these cell populations play a role in carbamylation in the tumour microenvironment and are therefore necessary for the anti-tumour effect. HHDII/DP4 mice were implanted with tumour and then immunised with ALDOA homocitrulline peptides. Mice where then either untreated or treated with Ly6G or Ly6C depletion antibodies to remove either the neutrophils/G-MDSCs or monocytes/M-MDSCs, respectively Peptide vaccination was associated with 100% survival whereas peptide and Ly6G+antibody was associated with a slight but significant reduction in the anti-tumour effect (80% survival, p=0.04) (FIG. 23a).
Next, antibodies were used to deplete the Ly6C+ population (FIG. 23b). Ly6C depletion alone increased survival when compared to control (20% survival, p=0.0012). For this study vaccination alone gave 80% survival (p<0.0001).

B16F1 DR4 tumours = test: Tumour therapy, B16F1 DR4 tumour in DR4 mice; type: in vivo, mouse; conditions: peptide with CpG/MPLA days 4, 11, 18
Excerpt: as §4
HHDII/DR1 (FIG. 19a) or DR4 (FIG. 19b) transgenic mice were challenged with B16F1 HHDII/DR1 or B16F1 DR4 tumours respectively prior to immunisation with vimentin 116-135Hcit peptide and tumour growth and survival were monitored.

[4] = test system: splenocytes from immunised mice; test: Ex vivo IL-10 ELISpot after peptide immunisation; conditions: mouse, in vivo
Protocol: C57BL/6 mice (Charles River, UK), HLA-DR4 mice (Model #4149, Taconic, USA), HLA-A2/DR1 (HHDII/DR1, Pasteur Institute), HLA-A2.1+/+HLA-DP4+/+hCD4+/+ (HLA-HHDII/DP4) transgenic mice (EM: 02221, European Mouse Mutant Archive) described in patent WO2013/017545 A1 (EMMA repository, France) were used, aged between 8 and 12 weeks. Peptides were dissolved in PBS to 1 mg/ml and then emulsified (a series of dilutions) with CpG ODN 1826 and MPLA 6 μg/mouse of each (Invivogen, UK). Peptides (25 μg/mouse) were injected subcutaneously at the base of the tail. Mice were immunised at days 1, 7 and 14 for peptide immunisation. Spleens were removed for analysis at day 21 unless stated otherwise.
ELISpot assays were performed using murine IFNγ, IL-17 and IL-10 capture and detection reagents according to the manufacturer's instructions (Mabtech, Sweden). In brief, anti-IFNγ, IL-17 and IL-10 specific antibodies were coated onto wells of 96-well Immobilin-P plate. […] After incubation, captured IFNγ, IL-10 and IL-17 were detected by biotinylated anti-IFNγ, IL-10 and IL-17 antibodies and developed with a streptavidin alkaline phosphatase and chromogenic substrate. […] Spots were analysed and counted using an automated plate reader (Cellular Technologies Ltd).

Row | Substance | CD4 T cell proliferation [1] | CD4 T cell proliferation [2] | survival [3] | overall survival (B16F1 DR4 tumours) | IL-10 ELISpot response [4]
1 | IGGVILFHETLYQ-hcit-ADDGRP (IGGVILFHETLYQ[hCit]ADDGRP) [Aldolase A 74-93 Hcit] | significant CD4 proliferation | significant proliferative responses | 90% |  | 
2 | NYID-Hcit-VRFLEQQN-Hcit-ILLAEL (NYID[hCit]VRFLEQQN[hCit]ILLAEL) [Vimentin 116-135 Hcit] | significant CD4 proliferation | just short of significance |  | 70% | no production
3 | hcit-DGADFA-hcit-WRCVL-hcit-IGEH ([hCit]DGADFA[hCit]WRCVL[hCit]IGEH) [Aldolase A 140-157 Hcit] | significant CD4 proliferation |  | 60% |  | 
